{
  "source": "paper PMC4332533",
  "about": "(Neuropharmacology, 2014)",
  "key": {"α3E173Cβ2R46C receptor": {"molecular_target": "α3E173Cβ2R46C receptor (Rattus norvegicus, UniProt P04757+P12390, E200C/R46C)", "sequence (P04757 26-499 E200C)": "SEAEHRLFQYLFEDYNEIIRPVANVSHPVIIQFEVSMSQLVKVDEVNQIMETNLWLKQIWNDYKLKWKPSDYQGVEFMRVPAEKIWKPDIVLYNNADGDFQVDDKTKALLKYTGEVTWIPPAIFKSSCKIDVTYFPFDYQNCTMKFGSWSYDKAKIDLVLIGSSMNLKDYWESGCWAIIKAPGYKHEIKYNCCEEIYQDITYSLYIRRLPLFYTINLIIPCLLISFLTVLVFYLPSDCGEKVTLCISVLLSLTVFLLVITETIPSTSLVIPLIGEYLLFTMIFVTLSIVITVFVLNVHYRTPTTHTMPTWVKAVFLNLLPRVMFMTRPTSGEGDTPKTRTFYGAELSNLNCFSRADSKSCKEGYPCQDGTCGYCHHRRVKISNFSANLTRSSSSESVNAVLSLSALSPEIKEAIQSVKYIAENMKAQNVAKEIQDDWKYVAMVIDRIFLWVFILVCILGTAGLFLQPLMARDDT", "sequence (P12390 25-500 R46C)": "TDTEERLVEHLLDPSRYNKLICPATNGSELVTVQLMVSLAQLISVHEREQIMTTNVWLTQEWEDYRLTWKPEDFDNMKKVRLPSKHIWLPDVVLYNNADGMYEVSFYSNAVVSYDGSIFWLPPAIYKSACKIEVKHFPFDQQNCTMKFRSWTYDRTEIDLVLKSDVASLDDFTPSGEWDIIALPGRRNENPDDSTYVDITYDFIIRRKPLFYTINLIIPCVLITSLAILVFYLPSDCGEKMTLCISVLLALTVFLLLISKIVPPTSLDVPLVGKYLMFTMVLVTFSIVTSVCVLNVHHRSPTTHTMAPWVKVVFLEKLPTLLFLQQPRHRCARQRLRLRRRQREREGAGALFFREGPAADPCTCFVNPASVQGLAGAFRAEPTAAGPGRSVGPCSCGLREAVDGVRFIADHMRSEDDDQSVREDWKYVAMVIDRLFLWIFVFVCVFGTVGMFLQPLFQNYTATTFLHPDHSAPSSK", "assay": "Macroscopic evoked currents, two-electrode voltage-clamp, Xenopus laevis oocytes", "assay_type": "cell-based"}, "α3E173Cβ2 receptor": {"molecular_target": "α3E173Cβ2 receptor (Rattus norvegicus, UniProt P04757+P12390, E200C)", "sequence (P04757 26-499 E200C)": "as the sequence (P04757 26-499 E200C) above", "sequence (P12390 25-500)": "as the sequence (P12390 25-500 R46C) above, with C22R counted along it", "assay": "Macroscopic evoked currents, two-electrode voltage-clamp, Xenopus laevis oocytes", "assay_type": "cell-based", "settings": "ACh alone; Hill fit"}, "α3S125Cβ2 receptor": {"molecular_target": "α3S125Cβ2 receptor (Rattus norvegicus, UniProt P04757+P12390, S152C)", "sequence (P04757 26-499 S152C)": "as the sequence (P04757 26-499 E200C) above, with S127C, C175E counted along it", "sequence (P12390 25-500, stated change not applied)": "as the sequence (P12390 25-500 R46C) above, with C22R counted along it", "assay": "Macroscopic evoked currents, two-electrode voltage-clamp, Xenopus laevis oocytes", "assay_type": "cell-based", "settings": "ACh alone; Hill fit"}, "α3S125Yβ2W149A receptor": {"molecular_target": "α3S125Yβ2W149A receptor (Rattus norvegicus, UniProt P04757+P12390, S152Y/W175A)", "sequence (P04757 26-499 S152Y)": "as the sequence (P04757 26-499 E200C) above, with S127Y, C175E counted along it", "sequence (P12390 25-500 W175A)": "as the sequence (P12390 25-500 R46C) above, with C22R, W151A counted along it", "assay": "Macroscopic evoked currents, two-electrode voltage-clamp, Xenopus laevis oocytes", "assay_type": "cell-based", "settings": "ACh alone"}, "α3Y168Cβ2D190C receptor": {"molecular_target": "α3Y168Cβ2D190C receptor (Rattus norvegicus, UniProt P04757+P12390, D216C/Y195C)", "sequence (P04757 26-499 Y195C)": "as the sequence (P04757 26-499 E200C) above, with Y170C, C175E counted along it", "sequence (P12390 25-500 D216C)": "as the sequence (P12390 25-500 R46C) above, with C22R, D192C counted along it", "assay": "Macroscopic evoked currents, two-electrode voltage-clamp, Xenopus laevis oocytes", "assay_type": "cell-based", "settings": "ACh alone; Hill fit; naive oocytes"}, "α3Y168Fβ2D190Q receptor": {"molecular_target": "α3Y168Fβ2D190Q receptor (Rattus norvegicus, UniProt P04757+P12390, D216Q/Y195F)", "sequence (P04757 26-499 Y195F)": "as the sequence (P04757 26-499 E200C) above, with Y170F, C175E counted along it", "sequence (P12390 25-500 D216Q)": "as the sequence (P12390 25-500 R46C) above, with C22R, D192Q counted along it", "assay": "Macroscopic evoked currents, two-electrode voltage-clamp, Xenopus laevis oocytes", "assay_type": "cell-based", "settings": "ACh alone"}, "α3Y168Fβ2 receptor": {"molecular_target": "α3Y168Fβ2 receptor (Rattus norvegicus, UniProt P04757+P12390, Y195F)", "sequence (P04757 26-499 Y195F)": "as the sequence (P04757 26-499 E200C) above, with Y170F, C175E counted along it", "sequence (P12390 25-500)": "as the sequence (P12390 25-500 R46C) above, with C22R counted along it", "assay": "Macroscopic evoked currents, two-electrode voltage-clamp, Xenopus laevis oocytes", "assay_type": "cell-based", "settings": "ACh alone; Hill fit"}, "α3β2A127Y receptor": {"molecular_target": "α3β2A127Y receptor (Rattus norvegicus, UniProt P04757+P12390, A153Y)", "sequence (P04757 26-499)": "as the sequence (P04757 26-499 E200C) above, with C175E counted along it", "sequence (P12390 25-500 A153Y)": "as the sequence (P12390 25-500 R46C) above, with C22R, A129Y counted along it", "assay": "Macroscopic evoked currents, two-electrode voltage-clamp, Xenopus laevis oocytes", "assay_type": "cell-based", "settings": "ACh alone; Hill fit"}, "α3Q37Cβ2 receptor": {"molecular_target": "α3Q37Cβ2 receptor (Rattus norvegicus, UniProt P04757+P12390, Q64C)", "sequence (P04757 26-499 Q64C)": "as the sequence (P04757 26-499 E200C) above, with Q39C, C175E counted along it", "sequence (P12390 25-500)": "as the sequence (P12390 25-500 R46C) above, with C22R counted along it", "assay": "Macroscopic evoked currents, two-electrode voltage-clamp, Xenopus laevis oocytes", "assay_type": "cell-based", "settings": "ACh alone; Hill fit"}, "α3β2R46C receptor": {"molecular_target": "α3β2R46C receptor (Rattus norvegicus, UniProt P04757+P12390, R72C)", "sequence (P04757 26-499)": "as the sequence (P04757 26-499 E200C) above, with C175E counted along it", "sequence (P12390 25-500 R72C)": "as the sequence (P12390 25-500 R46C) above, with C22R, R48C counted along it", "assay": "Macroscopic evoked currents, two-electrode voltage-clamp, Xenopus laevis oocytes", "assay_type": "cell-based", "settings": "ACh alone; Hill fit"}, "α3β2W149A receptor": {"molecular_target": "α3β2W149A receptor", "settings": "read-out: EC50 (ACh Activation); ACh alone; Hill fit; cited from earlier work"}, "α3β2A127C receptor": {"molecular_target": "α3β2A127C receptor (Rattus norvegicus, UniProt P04757+P12390, A153C)", "sequence (P04757 26-499)": "as the sequence (P04757 26-499 E200C) above, with C175E counted along it", "sequence (P12390 25-500 A153C)": "as the sequence (P12390 25-500 R46C) above, with C22R, A129C counted along it", "assay": "Macroscopic evoked currents, two-electrode voltage-clamp, Xenopus laevis oocytes", "assay_type": "cell-based", "settings": "ACh alone; Hill fit"}, "α3S125Cβ2Q39C receptor": {"molecular_target": "α3S125Cβ2Q39C receptor (Rattus norvegicus, UniProt P04757+P12390, Q65C/S152C)", "sequence (P04757 26-499 S152C)": "as the sequence (P04757 26-499 E200C) above, with S127C, C175E counted along it", "sequence (P12390 25-500 Q65C)": "as the sequence (P12390 25-500 R46C) above, with C22R, Q41C counted along it", "assay": "Macroscopic evoked currents, two-electrode voltage-clamp, Xenopus laevis oocytes"}, "α3β2Q39C receptor": {"molecular_target": "α3β2Q39C receptor (Rattus norvegicus, UniProt P04757+P12390, Q65C)", "sequence (P04757 26-499)": "as the sequence (P04757 26-499 E200C) above, with C175E counted along it", "sequence (P12390 25-500 Q65C)": "as the sequence (P12390 25-500 R46C) above, with C22R, Q41C counted along it", "assay": "Macroscopic evoked currents, two-electrode voltage-clamp, Xenopus laevis oocytes", "assay_type": "cell-based"}, "α3E173Aβ2 receptor": {"molecular_target": "α3E173Aβ2 receptor (Rattus norvegicus, UniProt P04757+P12390, E200A)", "sequence (P04757 26-499 E200A)": "as the sequence (P04757 26-499 E200C) above, with C175A counted along it", "sequence (P12390 25-500)": "as the sequence (P12390 25-500 R46C) above, with C22R counted along it", "assay": "Macroscopic evoked currents, two-electrode voltage-clamp, Xenopus laevis oocytes", "assay_type": "cell-based", "settings": "ACh alone; Hill fit"}, "α3β2R46V receptor": {"molecular_target": "α3β2R46V receptor (Rattus norvegicus, UniProt P04757+P12390, R72V)", "sequence (P04757 26-499)": "as the sequence (P04757 26-499 E200C) above, with C175E counted along it", "sequence (P12390 25-500 R72V)": "as the sequence (P12390 25-500 R46C) above, with C22R, R48V counted along it", "assay": "Macroscopic evoked currents, two-electrode voltage-clamp, Xenopus laevis oocytes", "assay_type": "cell-based", "settings": "ACh alone; Hill fit"}, "α3Q37Cβ2A127C receptor": {"molecular_target": "α3Q37Cβ2A127C receptor (Rattus norvegicus, UniProt P04757+P12390, A153C/Q64C)", "sequence (P04757 26-499 Q64C)": "as the sequence (P04757 26-499 E200C) above, with Q39C, C175E counted along it", "sequence (P12390 25-500 A153C)": "as the sequence (P12390 25-500 R46C) above, with C22R, A129C counted along it", "assay": "Macroscopic evoked currents, two-electrode voltage-clamp, Xenopus laevis oocytes", "assay_type": "cell-based", "settings": "ACh alone"}, "α3Y168Cβ2 receptor": {"molecular_target": "α3Y168Cβ2 receptor (Rattus norvegicus, UniProt P04757+P12390, Y195C)", "sequence (P04757 26-499 Y195C)": "as the sequence (P04757 26-499 E200C) above, with Y170C, C175E counted along it", "sequence (P12390 25-500)": "as the sequence (P12390 25-500 R46C) above, with C22R counted along it", "assay": "Macroscopic evoked currents, two-electrode voltage-clamp, Xenopus laevis oocytes", "assay_type": "cell-based", "settings": "ACh alone; Hill fit"}, "α3S125Yβ2A127Y receptor": {"molecular_target": "α3S125Yβ2A127Y receptor (Rattus norvegicus, UniProt P04757+P12390, A153Y/S152Y)", "sequence (P04757 26-499 S152Y)": "as the sequence (P04757 26-499 E200C) above, with S127Y, C175E counted along it", "sequence (P12390 25-500 A153Y)": "as the sequence (P12390 25-500 R46C) above, with C22R, A129Y counted along it", "assay": "Macroscopic evoked currents, two-electrode voltage-clamp, Xenopus laevis oocytes", "assay_type": "cell-based", "settings": "ACh alone"}, "α3β2D190Q receptor": {"molecular_target": "α3β2D190Q receptor (Rattus norvegicus, UniProt P04757+P12390, D216Q)", "sequence (P04757 26-499)": "as the sequence (P04757 26-499 E200C) above, with C175E counted along it", "sequence (P12390 25-500 D216Q)": "as the sequence (P12390 25-500 R46C) above, with C22R, D192Q counted along it", "assay": "Macroscopic evoked currents, two-electrode voltage-clamp, Xenopus laevis oocytes", "assay_type": "cell-based", "settings": "ACh alone; Hill fit"}, "α3β2D190C receptor": {"molecular_target": "α3β2D190C receptor (Rattus norvegicus, UniProt P04757+P12390, D216C)", "sequence (P04757 26-499)": "as the sequence (P04757 26-499 E200C) above, with C175E counted along it", "sequence (P12390 25-500 D216C)": "as the sequence (P12390 25-500 R46C) above, with C22R, D192C counted along it", "assay": "Macroscopic evoked currents, two-electrode voltage-clamp, Xenopus laevis oocytes", "assay_type": "cell-based", "settings": "ACh alone; Hill fit"}, "α3E173Aβ2R46V receptor": {"molecular_target": "α3E173Aβ2R46V receptor (Rattus norvegicus, UniProt P04757+P12390, E200A/R46V)", "sequence (P04757 26-499 E200A)": "as the sequence (P04757 26-499 E200C) above, with C175A counted along it", "sequence (P12390 25-500 R46V)": "as the sequence (P12390 25-500 R46C) above, with C22V counted along it", "assay": "Macroscopic evoked currents, two-electrode voltage-clamp, Xenopus laevis oocytes", "assay_type": "cell-based"}, "[1]": {"settings": "thermodynamic cycle Ω from EC50s, ACh alone, location M4"}},
  "data": [
    {"smiles": "CC(=O)OCC[N+](C)(C)C", "note": "[ACh, acetylcholine]", "values": [
      {"measurement": "Iaverage evoked by ACh", "setting": "α3E173Cβ2R46C receptor; 2 mM ACh, n = 8, one successful expression attempt", "value": "60 ± 10", "unit": "nA"},
      {"measurement": "nH (ACh Activation)", "setting": "α3E173Cβ2R46C receptor; ACh alone, Hill fit", "value": "0.85 ± 0.10 [5–6]"},
      {"measurement": "Ω(ACh)", "setting": "α3E173Cβ2R46C receptor; [1]", "value": 2.4},
      {"measurement": "nH (ACh Activation)", "setting": "α3E173Cβ2 receptor", "value": "1.16 ± 0.12 [7]"},
      {"measurement": "nH (ACh Activation)", "setting": "α3S125Cβ2 receptor", "value": "0.64 ± 0.13 [5–7]"},
      {"measurement": "nH (ACh Activation)", "setting": "α3S125Yβ2W149A receptor; Hill fit", "value": "0.61 ± 0.10 [6]"},
      {"measurement": "Ω(ACh)", "setting": "α3S125Yβ2W149A receptor; thermodynamic cycle Ω from EC50s, location A2", "value": 0.98},
      {"measurement": "nH (ACh Activation)", "setting": "α3Y168Cβ2D190C receptor", "value": "0.68 ± 0.08 [10]"},
      {"measurement": "nH (ACh Activation)", "setting": "α3Y168Fβ2D190Q receptor; Hill fit", "value": "0.83 ± 0.09 [11]"},
      {"measurement": "Ω(ACh)", "setting": "α3Y168Fβ2D190Q receptor; thermodynamic cycle Ω from EC50s, location M1", "value": 18},
      {"measurement": "nH (ACh Activation)", "setting": "α3Y168Fβ2 receptor", "value": "0.61 ± 0.04 [12]"},
      {"measurement": "nH (ACh Activation)", "setting": "α3β2A127Y receptor", "value": "1.46 ± 0.20 [5]"},
      {"measurement": "nH (ACh Activation)", "setting": "α3Q37Cβ2 receptor", "value": "1.67 ± 0.44 [4]"},
      {"measurement": "nH (ACh Activation)", "setting": "α3β2R46C receptor", "value": "0.88 ± 0.13 [5]"},
      {"measurement": "EC50", "setting": "α3β2W149A receptor", "value": "40 ± 6", "unit": "µM"},
      {"measurement": "nH (ACh Activation)", "setting": "α3β2A127C receptor", "value": "2.09 ± 0.34 [4]"},
      {"measurement": "nH (ACh Activation)", "setting": "α3S125Cβ2Q39C receptor; ACh alone, Hill fit, naive oocytes", "value": "0.66 ± 0.09 [3–7]"},
      {"measurement": "decrease in EC50 for ACh activation vs wild type", "setting": "α3S125Cβ2Q39C receptor; from Table 2", "value": 60, "unit": "fold"},
      {"measurement": "Ω(ACh)", "setting": "α3S125Cβ2Q39C receptor; thermodynamic cycle Ω from EC50s, ACh alone, location A2", "value": 0.16},
      {"measurement": "nH (ACh Activation)", "setting": "α3β2Q39C receptor; ACh alone, Hill fit", "value": "0.78 ± 0.12 [4]"},
      {"measurement": "increase in EC50 for ACh activation vs wild type", "setting": "α3β2Q39C receptor; from Table 2", "value": 2, "unit": "fold"},
      {"measurement": "nH (ACh Activation)", "setting": "α3E173Aβ2 receptor", "value": "1.77 ± 0.26 [3–6]"},
      {"measurement": "nH (ACh Activation)", "setting": "α3β2R46V receptor", "value": "0.92 ± 0.14 [5–7]"},
      {"measurement": "nH (ACh Activation)", "setting": "α3Q37Cβ2A127C receptor; Hill fit, naive oocytes", "value": "0.97 ± 0.13 [6]"},
      {"measurement": "Ω(ACh)", "setting": "α3Q37Cβ2A127C receptor; thermodynamic cycle Ω from EC50s, location M3", "value": 0.64},
      {"measurement": "nH (ACh Activation)", "setting": "α3Y168Cβ2 receptor", "value": "0.70 ± 0.11 [11]"},
      {"measurement": "nH (ACh Activation)", "setting": "α3S125Yβ2A127Y receptor; Hill fit", "value": "1.06 ± 0.19 [3]"},
      {"measurement": "Ω(ACh)", "setting": "α3S125Yβ2A127Y receptor; thermodynamic cycle Ω from EC50s, location A2/M3", "value": 3.2},
      {"measurement": "nH (ACh Activation)", "setting": "α3β2D190Q receptor", "value": "1.00 ± 0.15 [8]"},
      {"measurement": "nH (ACh Activation)", "setting": "α3β2D190C receptor", "value": "1.05 ± 0.14 [9]"},
      {"measurement": "Iaverage evoked by ACh", "setting": "α3E173Aβ2R46V receptor; 800 µM ACh, n = 8", "value": "990 ± 130", "unit": "nA"},
      {"measurement": "nH (ACh Activation)", "setting": "α3E173Aβ2R46V receptor; ACh alone, Hill fit", "value": "0.82 ± 0.06 [7–8]"},
      {"measurement": "Ω(ACh)", "setting": "α3E173Aβ2R46V receptor; [1]", "value": 15}
    ]}
  ]
}
